Measured values as given in patent US11180744B2, “Acinetobacter lysins” (priority 2014, dated 2021).
Several values for one entry are separate records, joined by “and”; a condition that tells them apart may be missing. Identical values can stand only once. Like-named read-outs stand apart in the source and are kept apart here. Where no end group is shown, it is not given here.

Columns and labels:
[1] = test system: A. baumannii strains #1791, S5 and ATCC17978; assay: In vitro bactericidal activities of peptides (Example 10); format: cell-based
[2] = test system: A. baumannii strains #1791 and ATCC17978; assay: microbe, parasite or virus in culture; conditions: Acinetobacter baumannii, ATCC17978, 24 h, 37° C.
[3] = test system: B cell line; assay: in vitro; format: cell-based
[4] = in vitro; format: cell-based; conditions: B cell line
[5] = test system: Human B-cells; assay: B cell survival, CellTiter 96 Non-Radioactive Cell Proliferation Assay; conditions: highest concentration tested (80 μM); 1 hr at 37° C.
[6] = test system: red blood cells (RBC); assay: Hemolysis, release of hemoglobin (OD405); conditions: 80-0.3125 μM; 1 hour at 37° C.; Triton X-100 positive control
[7] = test system: A. baumannii strains #1791 and ATCC17978; conditions: Mueller-Hinton broth (pH 7.9), 37° C., 24 hour
[8] = test system: A. baumannii 1791 biofilm; assay: In vitro treatment of catheter adherent A. baumannii 1791 biofilm with F307
[9] = test system: A. baumannii strain 1791 biofilm; assay: Mouse catheter model; format: in vivo, BALB/C mice; conditions: 250 μl of F307 (1 mg) injected into catheter under the dermis, repeated after 4 hours
Experimental: Mouse Catheter Model: Several 3 inch section of catheter tubing were seeded (1:1000) with A. baumannii strain 1791. A. baumannii biofilms were formed as described above. The back of twenty BALB/C mice were shaved, their backs were sterilized, and then an incision was made to place a 1 inch section of the catheter with a biofilm already formed under the dermis of the back. The incisions were then stapled shut. After 24 hours, 250 μl of F307 (1 mg) (n=10) or 250 μl control vehicle (n=10) was injected directly into the catheter that was under the dermis of the mouse. The treatment was repeated after 4 hours. After 3 hours the catheters were removed from the mice, and assayed as described in Experiment 4.

[10] = test system: A. baumannii; assay: Survival of mice after lethal injection of A. baumannii; format: in vivo, C57BL/6 mice; conditions: 1 mg of F307 IP two hours after 10^8 CFU IP; 14 days after infection
Experimental: Twenty-two C57BL/6 mice were given 10^8 CFU of A. baumannii strain intraperitoneally (IP). Two hours later, two mice were euthanized and organs examine as described below, ten mice injected IP with 1 mg of F307 and ten mice were injected IP with control vehicle.

[11] = test system: A. baumannii clinical isolates; assay: Crude lysate clearing zones on A. baumannii soft agar plates; conditions: thirteen A. baumannii clinical isolates
[12] = pH 7.9, strain #1791, Mueller-Hinton broth (pH 7.9)
[13] = pH 7.9, strain ATCC17978, Mueller-Hinton broth (pH 7.9)

## P307AE-8: SEQ ID NO: 49: NAKDYKGAAAEFPKWNKAGGRVLAGLVKRRKAEMELFLK (P307AE-8)
[1]; 50 μg/mL, 2 hours, room temperature
  decrease in viable bacteria: ~3.8 log-unit

## C[C@H]1COc2c(N3CCN(C)CC3)c(F)cc3c(=O)c(C(=O)O)cn1c23 [Levofloxacin]
[2]; [12]
  MIC: 6 µg/mL and 16.6 µM
[2]; [13]
  MIC: ≤ 0.1 µg/mL and 0.3 µM

## NAKDYKGAAAEFPKWNKAGGRVLAGLVKRRK [P307]
[3]
  effect on cell number of a B cell line: only a slight effect on cell number
[4]
  viability at 5 min, 2 μg: 95.2%
  viability at 5 min, 20 μg: 97.2%
  viability at 5 min, 200 μg: 94.6%
  viability at 0.5 h, 2 μg: 76.9%
  viability at 0.5 h, 20 μg: 88.6%
  viability at 1 h, 2 μg: 89.3%
  viability at 1 h, 20 μg: 89.7%
  viability at 1 h, 200 μg: 71.4%
  viability at 2 h, 2 μg: 92.5%
  viability at 2 h, 20 μg: 90.3%
  viability at 2 h, 200 μg: 71.9%
  viability at 3 h, 2 μg: 93.8%
  viability at 3 h, 20 μg: 91%
  viability at 3 h, 200 μg: 58.6%
  viability at 24 h, 2 μg: 96.3%
  viability at 24 h, 20 μg: 94.2%
  viability at 24 h, 200 μg: 76.3%

## CC(C)(O/N=C(\C(=O)N[C@@H]1C(=O)N2C(C(=O)[O-])=C(C[n+]3ccccc3)CS[C@H]12)c1csc(N)n1)C(=O)O [Ceftazidime]
[2]; [12]
  MIC: 250 µg/mL and 457 µM
[2]; [13]
  MIC: 12 µg/mL and 21.9 µM

## NAKDYKGAAAEFPKWNKAGGRVLAGLVKRRKSQSRESQC [P307SQ-8C]
[5]
  viability of B cells: remains the same as the buffer control
[6]
  integrity of RBCs (hemolysis): not affected

## P307CS-8: SEQ ID NO: 51: NAKDYKGAAAEFPKWNKAGGRVLAGLVKRRKCSQRQSES (P307CS-8)
[1]; scrambled last eight amino acids
  activity of P307CS-8 compared with P307SQ-8C: comparable

## Polymyxin B [reference compound]
[7]; strain #1791
  MIC: 0.25 μg/mL and 0.19 μM
[7]; strain ATCC17978
  MIC: 0.25 μg/mL and 0.19 μM

## SQSRESQC (Ex) [reference compound]
[1]; strains #1791 and S5, same molar concentration as 50 μg/mL P307
  bactericidal activity of SQSRESQC alone or combined with P307: no activity

B1: F307: phage lysin polypeptide, SEQ ID NO: 1, 16 kDa (protein, listed as Acinetobacter baumannii)
chain: VKTSNPGVDLIKGFEGLRLKAYDDGVGVWTIGFGTIKYPNGVRVKKGDTCTESQAEEYLRNDLVVFESAINRLVKVPLNQNQFDALASFTYNLGEGNLSISTLLKKLNAKDYKGAAAEFPKWNKAGGRVLAGLVKRRKAEMELFLK
[8]; 3-day biofilm on catheter, after 30 minutes of treatment
  drop in the number of colony forming units: ~4 log
[8]; 15 minutes F307 treatment
  CFU: 9.0 × 10^4 CFU
[8]; 30 minutes F307 treatment
  CFU: 6.0 × 10^3 CFU
[9]
  reduction of bacterial counts compared with control: approximately 2 logs
[10]
  survival: 50%
[11]
  percent of Acinetobacter strains lysed: about 90%
